Results taken from patent publication US7420102B2, “Dwarfism genes and dwarf plants” (Wisconsin Alumni Research Foundation, priority 2002, dated 2008).

Key:
[1] = test system: L10 mutant plants; experiment: Rescue of mutant phenotype by external application of bioactive GA3, L10 line; type: in vivo, Arabidopsis
Text: (§1) These phenotypes are similar to loss-of-function alleles of GA biosynthetic enzymes. […] Additionally, other GA forms were also substantially lower in the L10 and 69 lines (Table 4). Both mutant phenotypes could be rescued by the external application of bioactive GA3, which is consistent with the notion that the phenotypes were a result of reduced levels of bioactive GAs.

[2] = test system: 69 mutant plants; experiment: Rescue of mutant phenotype by external application of bioactive GA3, 69 line; type: in vivo, Arabidopsis
Text: as §1

`C=C1C[C@]23C[C@@]1(O)CC[C@H]2[C@@]12C=C[C@H](O)[C@@](C)(C(=O)O1)[C@H]2[C@@H]3C(=O)O` [GA3] was tested, and the “Flowering Time LD (Number of Leaves)” value ([1]; GA3-treated L10 plants) was 8 Number of Leaves, the Height ([1]; GA3-treated L10 plants) was 30 cm and the “Internode Length” value ([1]; GA3-treated L10 plants) was 7 mm. For the same compound, the “Number of Flowering Branches” value ([1]; GA3-treated L10 plants) was 65, the “Rescue of mutant phenotype” value ([1]; external application of GA3 to L10 mutant) was “rescued” and the “Flowering Time LD (Number of Leaves)” value ([2]; GA3-treated 69 plants) was 8 Number of Leaves. For the same compound, the Height ([2]; GA3-treated 69 plants) was 30 cm, the “Internode Length” value ([2]; GA3-treated 69 plants) was 7 mm and the “Number of Flowering Branches” value ([2]; GA3-treated 69 plants) was 65. For the same compound, the “Rescue of mutant phenotype” value ([2]; external application of GA3 to 69 mutant) was “rescued”.
